Assay: Solubility of dye in normal decane
Type: physicochemical
Settings: n-decane, 25° C., after heating to 50° C. and leaving 12 hours; 40% by mass added

Substance: tetraphenylporphine [Comparative compound H-1]
- Solubility in Decane: less than 0.1% by mass

— patent US9341839B2, “Electrowetting display device and dye composition for electrowetting display” (FUJIFILM CORPORATION, priority 2012, dated 2016)
